Article PMC12432127, “Assessing the potential of bacterial signal peptides for radiopharmaceutical applications” (Scientific Reports, 2025)
Several values for one entry are separate records, joined by “and”; a condition that tells them apart may be missing. Equal entries are not always repeated. Residues, ends and D or L forms follow the SMILES beside them. *: point of attachment. For = O=C*

Columns and labels:
human FPR2 = molecular target: T1, human FPR2 (Homo sapiens, UniProt P25090); test: High-throughput calcium imaging (FLIPR), FPR2 transfected HEK293T cells; type: cell-based; settings: read-out: EC50 Ca2+ mobilization
T1 construct: expressed in transfected cells; host or cells: HEK293T (transient, jetPEI)
T1 sequence (P25090 1-351): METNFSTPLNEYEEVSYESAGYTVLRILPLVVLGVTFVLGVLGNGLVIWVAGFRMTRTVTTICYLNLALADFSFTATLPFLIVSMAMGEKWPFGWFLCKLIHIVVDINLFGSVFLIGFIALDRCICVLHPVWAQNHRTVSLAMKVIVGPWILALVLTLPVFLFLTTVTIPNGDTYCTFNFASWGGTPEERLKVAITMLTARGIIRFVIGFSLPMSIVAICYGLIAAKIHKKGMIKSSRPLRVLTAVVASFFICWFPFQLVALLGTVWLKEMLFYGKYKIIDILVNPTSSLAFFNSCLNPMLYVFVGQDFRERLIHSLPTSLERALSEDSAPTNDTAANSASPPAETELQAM
Experimental: (§1) Cell transfection was performed approximately 24 h after seeding the cells, when they reached about 70% confluence. Transfection was carried out using jetPEI™ (Polyplus) according to the following protocol: 0.25 µg DNA was diluted in 10 µL NaCl (150 mM). 0.5 µL of jetPEI™ solution in 10 µL NaCl was mixed with the DNA solution and incubated at RT for 15–30 min. After incubation, 20 µL of the jetPEI™/DNA mixture was added dropwise to the cells, which were then placed in the cell culture incubator at 37 °C and 5% CO2. After 18 to 24 h of transfection, the medium was replaced, and 100 µL per well was added, then placed back in the incubator.
(§2) Automated high-throughput Ca^2+ measurements using a fluorescence imaging plate reader (FLIPR, Molecular Devices) were performed. […] After 2 h of loading with the fluorescent dye, the solution was removed, the plate was washed three times using an ELX50 washer (BioTek), and the intracellular release of calcium was measured using FLIPR. […]
(§3) The results are expressed as the means ± standard deviations of the number of the indicated determinations. […] Response amplitudes (F/F0) were calculated by dividing maximal fluorescence change after ligand application by baseline fluorescence. Maximal amplitudes were set to 100%, and curves were calculated with Graph Pad Prism Version 10.1 (GraphPad Software, Boston, MA, USA). […]

U87-MG cells = test: Calcium imaging (FLIPR) in U87-MG cells; type: cell-based, human; settings: for Calicum signal (dF/F0): U87 cells
Experimental: (§4) Automated high-throughput Ca^2+ measurements using a fluorescence imaging plate reader (FLIPR, Molecular Devices) were performed. Briefly, […] were seeded in 96-well plates (~ 50,000 cells/well) one day before the experiments and incubated at 37 °C. HEK293T cells were co-transfected with the receptor or mock and the G protein Gα16 for 48 h. On the day of the experiments, the medium was removed, and the cells were loaded with a loading solution consisting of 2 µM Calbryte dye in C1 buffer (Calbryte 520AM, AAT Bioquest 20651) 50 µL per well, for at least 2 h at RT in the dark. After 2 h of loading with the fluorescent dye, the solution was removed, the plate was washed three times using an ELX50 washer (BioTek), and the intracellular release of calcium was measured using FLIPR. A Ca^2+ response was defined as an increase in the excitation ratio (340 nm/380 nm) that was at least four times higher than the mean baseline noise after bath application.
(§5) The results are expressed as the means ± standard deviations of the number of the indicated determinations. Calcium measurement experiments were routinely performed as triplicates and averaged over at least three independent transfections. Response amplitudes (F/F0) were calculated by dividing maximal fluorescence change after ligand application by baseline fluorescence. Maximal amplitudes were set to 100%, and curves were calculated with Graph Pad Prism Version 10.1 (GraphPad Software, Boston, MA, USA). S.D. values were calculated as averages from independently obtained EC50 values using the STDEV. Data derived from experiments were analyzed by two-way ANOVA. P < 0.05 was accepted as significant.

human FPR3 = molecular target: T2, human FPR3 (Homo sapiens, UniProt P25089); test: High-throughput calcium imaging (FLIPR), FPR3 transfected HEK293T cells; type: cell-based; settings: up to 10 µM
T2 construct: expressed in transfected cells; host or cells: HEK293T (transient, jetPEI)
T2 sequence (P25089 1-353): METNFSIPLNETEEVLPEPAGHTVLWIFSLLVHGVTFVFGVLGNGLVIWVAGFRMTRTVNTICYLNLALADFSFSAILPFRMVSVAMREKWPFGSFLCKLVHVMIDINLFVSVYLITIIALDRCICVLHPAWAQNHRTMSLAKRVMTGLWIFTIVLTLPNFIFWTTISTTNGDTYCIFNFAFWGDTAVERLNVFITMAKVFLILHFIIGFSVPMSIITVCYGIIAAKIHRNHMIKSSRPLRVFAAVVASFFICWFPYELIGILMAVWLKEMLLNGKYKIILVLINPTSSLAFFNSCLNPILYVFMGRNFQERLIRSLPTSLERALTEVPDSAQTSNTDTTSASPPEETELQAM
Experimental: as §1, §2, §3

FPR1 = molecular target: T3, FPR1 (Homo sapiens, UniProt P21462); test: High-throughput calcium imaging (FLIPR), FPR1 transfected HEK293T cells; type: cell-based; settings: for Calicum signal (dF/F0): FPR1-HEK
T3 construct: expressed in transfected cells; host or cells: HEK293T (transient, jetPEI)
T3 sequence (P21462 1-350): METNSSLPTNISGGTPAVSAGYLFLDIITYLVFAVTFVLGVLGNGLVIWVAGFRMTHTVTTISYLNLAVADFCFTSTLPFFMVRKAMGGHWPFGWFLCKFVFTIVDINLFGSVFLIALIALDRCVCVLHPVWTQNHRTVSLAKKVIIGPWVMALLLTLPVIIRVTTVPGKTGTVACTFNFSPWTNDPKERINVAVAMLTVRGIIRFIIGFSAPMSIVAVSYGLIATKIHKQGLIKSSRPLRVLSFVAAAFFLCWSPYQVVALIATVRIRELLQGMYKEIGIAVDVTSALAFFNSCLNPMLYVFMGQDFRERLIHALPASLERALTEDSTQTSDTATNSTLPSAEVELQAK
Experimental: as §1, §4, §5

[1] = Log Concentration (M) -6,5, single replicate values
[2] = Log Concentration (M) -6, single replicate values
[3] = Log Concentration (M) -7,5, single replicate values
[4] = Log Concentration (M) -7, single replicate values
[5] = Log Concentration (M) -8,5, single replicate values
[6] = Log Concentration (M) -8, single replicate values
[7] = Log Concentration (M) -9, single replicate values

In the case of `CC[C@H](C)[C@H](NC(=O)[C@H](CCCCN)NC(=O)[C@@H](NC(=O)[C@@H]1CCCN1C(=O)[C@@H](NC(=O)[C@H](CCSC)NC=O)C(C)C)[C@@H](C)CC)C(=O)O` [f-MVPIKI] (For-MVPIKI-OH; C-terminus assumed), the EC50 (human FPR2) is reported as 60 ± 0.76 nM, the EC50 (U87-MG cells; U87-MG cells, read-out: EC50 Ca2+ flux) is reported as 5.3 ± 2.4 nM and the “Calicum signal (dF/F0)” value (U87-MG cells; [1]) is reported as 1,19 (2×) and 0,99 and 1,7 and 1,4. For the same compound, the “Calicum signal (dF/F0)” value (U87-MG cells; [2]) was 1,22 and 1,13 and 1,2 and 1,14 and 1,1, the “Calicum signal (dF/F0)” value (U87-MG cells; [3]) was 1 and 0,95 and 0,98 and 1,12 and 1,1 and the “Calicum signal (dF/F0)” value (U87-MG cells; [4]) was 1 and 1,1 and 1,2 and 1,18 and 0,99. For the same compound, the “Calicum signal (dF/F0)” value (U87-MG cells; [5]) was 0,66 (2×) and 0,69 and 0,6 and 0,47, the “Calicum signal (dF/F0)” value (U87-MG cells; [6]) was 0,9 and 0,98 and 0,94 and 1,3 and 1,07 and the “Calicum signal (dF/F0)” value (U87-MG cells; Log Concentration (M) -9,5, single replicate values) was 0,01 and 0,08 and 0,09 and 0,1 and 0,3. For the same compound, the “Calicum signal (dF/F0)” value (U87-MG cells; [7]) was 0,14 and 0,23 and 0,2 and 0,12 and 0,38, the “activation of FPR3 (calcium)” value (human FPR3) was “did not activate FPR3 at any tested concentration” and the “Calicum signal (dF/F0)” value (FPR1; [1]) was 0,85 (2×) and 0,92. For the same compound, the “Calicum signal (dF/F0)” value (FPR1; [2]) was 0,75 and 0,94 and 0,85, the “Calicum signal (dF/F0)” value (FPR1; [3]) was 0,71 and 0,77 and 0,68 and the “Calicum signal (dF/F0)” value (FPR1; [4]) was 0,57 and 0,86 and 0,73. The “Calicum signal (dF/F0)” value (FPR1; [5]) was 0,27 and 0,32 and 0,34, the “Calicum signal (dF/F0)” value (FPR1; [6]) was 0,65 and 0,63 and 0,6 and the “Calicum signal (dF/F0)” value (FPR1; [7]) was 0,18 and 0,24 and 0,22. The EC50 (FPR1; FPR1 transfected HEK293T cells, peak calcium response, read-out: EC50 Ca2+ mobilization) was 4.3 ± 2.4 nM and the “preference for FPR1 over FPR2 (calcium EC50)” value (FPR1; FPR1 vs FPR2) was “approximately 14 fold”.
